Read-outs that look alike come from different tables or passages of the source.
Key:
[1] = test system: HCV genotype 1b I389Iuc-ubi-neo/NS3-3′/5.1 replicon in Huh5.2 cells; experiment: microbe, parasite or virus in culture; format: cell-based, Hepatitis C Virus; settings: for Selectivity index (CC50/EC50): Huh5.2 replicon assay
Protocol: (§1) Antiviral efficacy against genotype 1 HCV may be tested as follows: One day before addition of the test article, Huh5.2 cells, containing the HCV genotype 1b I389Iuc-ubi-neo/NS3-3′/5.1 replicon (Vrolijk et al., 2003) and subcultured in cell growth medium [DMEM (Cat No. 41965039) supplemented with 10% FCS, 1% non-essential amino acids (11140035), 1% penicillin/streptomycin (15140148) and 2% Geneticin (10131027); Invitrogen] at a ratio of 1.3-1.4 and grown for 3-4 days in […] tissue culture flasks (Techno Plastic Products), were harvested and seeded in assay medium (DMEM, 10% FCS, 1% non-essential amino acids, 1% penicillin/streptomycin) at a density of 6500 cells/well (100 uL/well) in 96-well tissue culture microtitre plates (Falcon, Beckton Dickinson for evaluation of the anti-metabolic effect and CulturPlate, Perkin Elmer for evaluation of antiviral effect). The microtitre plates are incubated overnight (37° C., 5% CO2, 95-99% relative humidity), yielding a non-confluent cell monolayer.
(§2) Dilution series are prepared; each dilution series is performed in at least duplicate. Following assay setup, the microtitre plates are incubated for 72 hours (37° C., 5% CO2, 95-99% relative humidity).
For the evaluation of antiviral effects, assay medium is aspirated and the cell monolayers are washed with PBS. The wash buffer is aspirated, 25 uL of Glo Lysis Buffer (Cat. No. E2661, Promega) is added after which lysis is allowed to proceed for 5 min at room temperature. Subsequently, 50 uL of Luciferase Assay System (Cat. No. E1501, Promega) is added and the luciferase luminescence signal is quantified immediately (1000 ms integration time/well, Safire^2, Tecan). Relative luminescence units are converted to percentage of untreated controls.
(§3) The selectivity index (SI), indicative of the therapeutic window of the compound, is calculated as CC50/EC50.
(§4) Compounds were analysed in the replicon assay using Huh5.2 cells as described in the General Methods.

Huh5.2 cells = experiment: Anti-metabolic effect (MTS) in the replicon cell line; settings: Huh5.2 cells, 72 hours, MTS metabolic activity
Protocol: as §1, §2
(§5) For the evaluation of anti-metabolic effects, the assay medium is aspirated, replaced with 75 uL of a 5% MTS (Promega) solution in phenol red-free medium and incubated for 1.5 hours (37° C., 5% CO2, 95-99% relative humidity). Absorbance is measured at a wavelength of 498 nm (Safire^2, Tecan) and optical densities (OD values) are converted to percentage of untreated controls.
as §3, §4

[2] = Microsome stability assay, human liver microsomes; format: in vitro ADME; settings: for stability in human liver microsomes compared to sanglifehrin A (in words): compared to sanglifehrin A (5)
Protocol: (§6) Mouse or human liver microsomes were diluted with buffer C (0.1 M Potassium Phosphate buffer, 1.0 mM EDTA, pH 7.4) to a concentration of 2.5 mg/mL. Microsomal stability samples were then prepared by adding 50 uL of 5 uM compound spiking solution (0.5 uL 10 mM DMSO stock solution in 9.5 uL ACN, added to 990 uL Buffer C) to 50 μL of microsomal solution (2.5 mg/mL), 110 uL Buffer C and mixed well. All samples were pre-incubated for approximately 15 minutes at 37° C. Following this, the reaction was initiated by adding 40 uL of the NADPH solution (12.5 mM) with gentle mixing. Aliquots (40 uL) were removed at 0, 15, 30, 45 and 60 minutes and quenched with ACN containing internal standard (120 uL). Protein was removed by centrifugation (4000 rpm, 15 min) and the sample plate analysed for compound concentration by LC-MS/MS. Half-lives were then calculated by standard methods, comparing the concentration of analyte wth the amount originally present.
(§7) Stability of the compounds in human and mouse liver microsomes was analysed as described in the General Methods. Sanglifehrin A, 5 was included as a comparison.

[3] = Microsome stability assay, mouse liver microsomes; format: in vitro ADME; settings: for stability in mouse liver microsomes compared to sanglifehrin A (in words): compared to sanglifehrin A (5)
Protocol: as §6, §7

in vitro = settings: human
Protocol: as §1, §2, §5, §3, §4

HBV = settings: cited from earlier work
HIV-1 = settings: clinical, cited from earlier work
[4] = human, in vivo; cited from earlier work
cyclophilin A (CyPA) = cyclophilin A (CyPA) (Homo sapiens, UniProt P62937); settings: relative to CsA; cited from earlier work
[5] = Huh5.2 cells, HCV genotype 1b replicon, 72 hours, luciferase signal, read-out: EC50
[6] = human liver microsomes, NADPH, 37° C.
[7] = mouse liver microsomes, NADPH, 37° C.
[8] = Hepatitis C virus, Huh-5-2, Huh5.2 cells, HCV genotype 1b replicon, 72 hours, luciferase signal, read-out: EC50
[9] = pH 7.4, human liver microsomes, NADPH, 37° C.
[10] = pH 7.4, mouse liver microsomes, NADPH, 37° C.

Chain of cyclophilin A (CyPA) (P62937 whole entry): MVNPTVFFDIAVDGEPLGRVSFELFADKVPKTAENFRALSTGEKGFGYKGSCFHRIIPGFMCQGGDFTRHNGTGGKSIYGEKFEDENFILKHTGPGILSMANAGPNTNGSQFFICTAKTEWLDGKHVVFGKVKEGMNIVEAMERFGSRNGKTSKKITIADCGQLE

Compound	stability in human liver microsomes compared to sanglifehrin A (in words) [2]	potency in the Huh5.2 replicon assay (in words) [1]	EC50 [1, 8] [µM]	Selectivity index (CC50/EC50) [1]	CC50 (in vitro) [µM]	half-life [2, 9] [min]	stability in mouse liver microsomes compared to sanglifehrin A (in words) [3]	half-life [3, 10] [min]	other results
58-des(3-hydroxyphenyl)-58-(3-hydroxy(2-pyridyl)-sanglifehrin A [Compound 19]	increased stability	–	–	–	–	–	–	–	EC50 [1, 5]: 24.3 µM; CC50 (Huh5.2 cells): 48.1 µM; Human liver microsome half life [2, 6]: 10.37 min; Mouse liver microsome half life [3, 7]: 4.71 min
CC[C@H]1C[C@H](C)[C@@]2(NC1=O)O[C@@H](C[C@H](O)[C@@H](C)CC/C=C/C=C(\C)[C@@H]1C/C=C/C=C/[C@H](O)[C@H](C)[C@@H](O)[C@@H](CCC(C)=O)C(=O)N[C@@H](C(C)C)C(=O)N[C@@H](Cc3cc(O)cc(F)c3)C(=O)N3CCCC(N3)C(=O)O1)[C@H](C)[C@H](O)[C@@H]2C (stereo partly shown) [Compound 14, 63-Fluoro Sanglifehrin a]	increased stability	very potent	0.135	121	12.8	9.32	more stable	9.78	–
CC[C@H]1C[C@H](C)[C@@]2(NC1=O)O[C@@H](C[C@H](O)[C@@H](C)CC/C=C/C=C(\C)[C@@H]1C/C=C/C=C/[C@H](O)[C@H](C)[C@@H](O)[C@@H](CCC(C)=O)C(=O)N[C@@H](C(C)C)C(=O)N[C@@H](Cc3cc(O)c(F)c(F)c3)C(=O)N3CCCC(N3)C(=O)O1)[C@H](C)[C@H](O)[C@@H]2C (stereo partly shown) [Compound 15, 62,63-Fluoro Sanglifehrin A]	increased stability	very potent	0.195	88	16.6	10.8	more stable	9.22	–
CC[C@H]1C[C@H](C)[C@@]2(NC1=O)O[C@@H](C[C@H](O)[C@@H](C)CC/C=C/C=C(\C)[C@@H]1C/C=C/C=C/[C@H](O)[C@H](C)[C@@H](O)[C@@H](CCC(C)=O)C(=O)N[C@@H](C(C)C)C(=O)N[C@@H](Cc3ccc(F)c(O)c3)C(=O)N3CCCC(N3)C(=O)O1)[C@H](C)[C@H](O)[C@@H]2C (stereo partly shown) [Compound 16, 62-Fluoro Sanglifehrin A]	increased stability	very potent	0.89	32	29.7	6.61	–	5.48	–
CC[C@H]1C[C@H](C)[C@@]2(NC1=O)O[C@@H](C[C@H](O)[C@@H](C)CC/C=C/C=C(\C)[C@@H]1C/C=C/C=C/[C@H](O)[C@H](C)[C@@H](O)[C@@H](CCC(C)=O)C(=O)N[C@@H](C(C)C)C(=O)N[C@@H](Cc3ccc(C)c(O)c3)C(=O)N3CCCC(N3)C(=O)O1)[C@H](C)[C@H](O)[C@@H]2C (stereo partly shown) [Compound 17, 62-Methyl Sanglifehrin A]	increased stability	very potent	0.083	143	11.6	9.5	more stable	9.67	–
CC[C@H]1C[C@H](C)[C@@]2(NC1=O)O[C@@H](C[C@H](O)[C@@H](C)CC/C=C/C=C(\C)[C@@H]1C/C=C/C=C/[C@H](O)[C@H](C)[C@@H](O)[C@@H](CCC(C)=O)C(=O)N[C@@H](C(C)C)C(=O)N[C@@H](Cc3ccccc3)C(=O)N3CCCC(N3)C(=O)O1)[C@H](C)[C@H](O)[C@@H]2C (stereo partly shown) [Compound 18, 61-Deshydroxy Sanglifehrin A]	increased stability	–	3.4	–	11.7	–	–	–	half-life at 1 µM [2, 9]: 7.64 min; half-life at 1 µM [3, 10]: 3.46 min
C/C=C/CC(C)C(O)C1C(=O)NC(CC)C(=O)N(C)CC(=O)N(C)C(CC(C)C)C(=O)NC(C(C)C)C(=O)N(C)C(CC(C)C)C(=O)NC(C)C(=O)NC(C)C(=O)N(C)C(CC(C)C)C(=O)N(C)C(CC(C)C)C(=O)N(C)C(C(C)C)C(=O)N1C (stereo not shown) [Cyclosporine A, 1, Cyclosporine A, reference compound]	–	less potent	–	–	–	–	–	–	EC50 ([1]; Hepatitis C virus, Huh-5-2, 72 h): 0.2 µM; IC50 against HBV (HBV; Xie et al., 2007): > 1.3 µg/mL
C/C=C/C[C@@H](C)[C@@H](O)[C@H]1C(=O)N[C@@H](CC)C(=O)N(C)[C@H](C)C(=O)N(CC)[C@@H](C(C)C)C(=O)N[C@@H](C(C)C)C(=O)N(C)[C@@H](CC(C)C)C(=O)N[C@@H](C)C(=O)N[C@H](C)C(=O)N(C)[C@@H](CC(C)C)C(=O)N(C)[C@@H](CC(C)C)C(=O)N(C)[C@@H](C(C)C)C(=O)N1C [DEBIO-025]	–	–	–	–	–	–	–	–	IC50 (HBV; Ptak et al. 2008, read-out: IC50 against HBV): 4.1 µM; reduction of HIV-1 RNA levels (in words) (HIV-1; 27 of the treated patients (Steyn et al., 2006)): no reduction; reduction of HIV-1 RNA levels (HIV-1; in nine patients (Steyn et al., 2006)): ≥ 0.5 log 10 copies/mL; reduction of HIV-1 RNA levels (HIV-1; in two patients (Steyn et al., 2006)): > 1 log 10 copies/mL; discontinuation of treatment caused by hyperbilirubinemia [4]: 4 out of 16
CC(=O)CC[C@H]1C(=O)N[C@@H](C(C)C)C(=O)N[C@@H](Cc2cccc(O)c2)C(=O)N2CCC[C@H](N2)C(=O)O[C@H](/C(C)=C/CO)C/C=C/C=C/[C@H](O)[C@H](C)[C@H]1O [Hydroxymacrocycle, 6, reference compound]	–	–	8.4	9.9	83.6	–	–	–	–
CC[C@H]1C[C@H](C)[C@@]2(NC1=O)O[C@@H](C[C@H](O)[C@@H](C)CC/C=C/C=C(\C)[C@@H]1C/C=C/C=C/[C@H](O)[C@H](C)[C@@H](O)[C@@H](CCC(C)=O)C(=O)N[C@@H](C(C)C)C(=O)N[C@@H](Cc3cccc(O)c3)C(=O)N3CCC[C@H](N3)C(=O)O1)[C@H](C)[C@H](O)[C@@H]2C [Sanglifehrin A, 5, Sanglifehrin A, reference compound]	–	less potent	–	–	–	–	–	–	EC50 [1, 5]: 0.318 µM; CC50 (Huh5.2 cells): 9.1 µM; Human liver microsome half life [2, 6]: 6.38 min; Mouse liver microsome half life [3, 7]: 6.15 min; higher affinity for CyPA compared to CsA (cyclophilin A (CyPA)): approximately 20 fold

Source: patent publication US9271977B2, “Sanglifehrin derivatives and methods for their production” (NeuroVive Pharmaceutical AB, priority 2010, dated 2016)
